“Also recorded” adds a separate entry of the source.
Key:
[1] = tested on: L1210/6MP, 6TG, 6TGR cells; assay: Life span of mice inoculated with L1210 resistant to 6MP, 6TG, 6TGR; assay type: in vivo, mouse; conditions: for ILS: L1210/6MP,6TG; for activity against drug resistant cells (words): mouse, in vivo
[2] = tested on: Human Colon Adenocarcinoma CX-1; assay: Human Colon Adenocarcinoma CX-1 tumor weight in nu/nu mice; assay type: in vivo; conditions: for Tumor wt, staging day (mean ± 1SD): before treatment (day 33 post implant); for δT/δC: ≤20% active
Experimental: In this example Compound 19 was tested against reticulum cell sarcoma M5076. For this and certain other tests below, test results are shown as δT/δC. Utilizing this protocol the difference in tumor weight before treatment and after treatment of the treated animals compared to the control animals is determined.
Compound 19 was further tested against Human Colon Adenocarcinoma CX-1. Activity against this tumor system is indicated at a δT/δC value of less than 20.

[3] = Solubility (maximum solubility); assay type: physicochemical
B-16 melanoma = assay: Activity against B-16 melanoma; conditions: in vivo
Murine Glioma 261 = Murine Glioma 261 tumor weight in C57B1/6 mice; assay type: in vivo, mouse; conditions: qd days 1-9; for Attained tumor wt (Mean ± 1SD): day 10; for T/C (%): active at or below 42%
Experimental: Compound 19 was also tested against Murine Glioma 261. In this test activity is indicated at levels of T/C below 42%. As is shown in Table 19, Compound 19 is active at various doses against this tumor system.

Lewis lung carcinoma = assay: Activity against Lewis lung carcinoma; conditions: in vivo
L1210/5FU cells = assay: 5-Fluorouracil resistant L1210 cells surviving treatment; assay type: in vivo, mouse
Experimental: In Examples G through K Compound 19 was tested against L1210 cell lines which had developed resistance to other known cancer chemotherapeutic agents.
In Example J, the results of which are shown in Table 10 below, Compound 19 was tested against 5-Fluorouracil resistant cells.

[4] = tested on: human lung carcinoma LX-1; assay: Activity against human lung carcinoma LX-1; conditions: in vivo
L1210 cells = assay: Bioassay of viable L1210 cells in brain after intracranial inoculation and ip drug; assay type: in vivo, mouse; conditions: for crossing of blood brain barrier / CNS penetration (words): mouse, in vivo
Source text: BDF1 mice were inoculated intracranially on day 0 with 1×10^5 L1210 cells. […] 24 hr after drug delivery the brains were collected, homogenized, and injected ip into untreated mice. Each mouse received the equivalent of half a brain. Thereafter, life span was monitored and, using inoculum-response data as a base of comparison, estimates were made of the numbers of viable cells in treated and control brains.

[5] = Toxicity / maximum tolerated dosage in mice; assay type: in vivo
Experimental: In Example N other compounds of the invention were tested against L1210 cells. […] Activity in Table 14-a is tabulated as both increases in life span and as cells surviving treatment and that in table 14-b as T/C.

L1210/MTX cells = assay: Methotrexate resistant L1210 cells surviving treatment; assay type: in vivo, mouse
Experimental: In Example I Compound 19 was tested against Methotrexate resistant L1210 cells.

[6] = listed as 2-amino-9-β-D-ribofuranosyl-9H-purine-6-sulfinamide
[7] = day 12, ip 138.4 mg/kg/inj, qd days 1,3,5,7,9
[8] = day 12, ip 138.4 mg/kg/inj, qd days 1,4,7,10,13,16
[9] = day 12, ip 173.0 mg/kg/inj, qd days 1,3,5,7
[10] = day 15, ip 138.4 mg/kg/inj, qd days 1,3,5,7,9,11
[11] = day 15, ip 138.4 mg/kg/inj, qd days 1,4,7,10,13
[12] = day 16, ip 173.0 mg/kg/inj, qd days 1,3,5,7,9
[13] = day 16, ip 173.0 mg/kg/inj, qd days 1,4,7,10
[14] = day 17, ip 173.0 mg/kg/inj, qd days 1,4,7,10,13

Structure (SMILES): Nc1nc([S+](N)[O-])c2ncn([C@@H]3O[C@H](CO)[C@@H](O)[C@H]3O)c2n1 (mixture of isomers) [Compound 19, 2-amino-9-β-D-ribofuranosyl-9H-purine-6-sulfinamide]
- Activity against I.P. L1210 cells resistant to 6MP, 6TG, 6TGR, T/C ([1]; 37 mg/kg, bid days 1,3,5,7): 165.6%
- Activity against I.P. L1210 cells resistant to 6MP, 6TG, 6TGR, T/C ([1]; 62 mg/kg, bid day 1): 133.3%
- Activity against I.P. L1210 cells resistant to 6MP, 6TG, 6TGR, T/C ([1]; 62 mg/kg, bid days 1,4,7): 175.0%
- Activity against I.P. L1210 cells resistant to 6MP, 6TG, 6TGR, T/C ([1]; 62 mg/kg, qd day 1): 127.3%
- Activity against I.P. L1210 cells resistant to 6MP, 6TG, 6TGR, T/C ([1]; 62 mg/kg, tid day 1): 133.3%
- Activity against I.P. L1210 cells resistant to 6MP, 6TG, 6TGR, T/C ([1]; 104 mg/kg, bid day 1): 150.0%
- Activity against I.P. L1210 cells resistant to 6MP, 6TG, 6TGR, T/C ([1]; 104 mg/kg, qd day 1): 122.2%
- Activity against I.P. L1210 cells resistant to 6MP, 6TG, 6TGR, T/C ([1]; 173 mg/kg, qd day 1): 144.5%
- ILS ([1]; ip 37 mg/kg/inj, bid days 1,3,5,7): 66%
- ILS ([1]; ip 62 mg/kg/inj, bid days 1,4,7): 75%
- ILS ([1]; oral 37 mg/kg/inj, bid days 1,3,5,7): 0%
- ILS ([1]; oral 62 mg/kg/inj, bid days 1,4,7): 0%
- activity against drug resistant cells (words) [1]: exhibited activity against the drug resistant cells; also recorded: active
- activity against drug resistant cells (words) [1, 6]: demonstrated activity against cells which have become resistant to other chemotherapeutic agents
- Tumor wt, staging day (mean ± 1SD) ([2]; ip 138.4 mg/kg/inj group, qd days 1,3,5,7,9): 226 mg
- Tumor wt, staging day (mean ± 1SD) ([2]; ip 138.4 mg/kg/inj group, qd days 1,3,5,7,9,11): 220 mg
- Tumor wt, staging day (mean ± 1SD) ([2]; ip 138.4 mg/kg/inj group, qd days 1,4,7,10,13): 225 mg
- Tumor wt, staging day (mean ± 1SD) ([2]; ip 138.4 mg/kg/inj group, qd days 1,4,7,10,13,16): 215 mg
- Tumor wt, staging day (mean ± 1SD) ([2]; ip 173.0 mg/kg/inj group, qd days 1,3,5,7): 222 mg
- Tumor wt, staging day (mean ± 1SD) ([2]; ip 173.0 mg/kg/inj group, qd days 1,3,5,7,9): 229 mg
- Tumor wt, staging day (mean ± 1SD) ([2]; ip 173.0 mg/kg/inj group, qd days 1,4,7,10): 226 mg
- Tumor wt, staging day (mean ± 1SD) ([2]; ip 173.0 mg/kg/inj group, qd days 1,4,7,10,13): 226 mg
- Tumor wt, evaluation day (mean ± 1SD) [2, 7]: 278 ± 114 mg
- δT/δC [2, 7]: 25.0%
- Tumor wt, evaluation day (mean ± 1SD) [2, 8]: 296 ± 186 mg
- δT/δC [2, 8]: 38.9%
- Tumor wt, evaluation day (mean ± 1SD) [2, 9]: 302 ± 144 mg
- δT/δC [2, 9]: 38.5%
- Tumor wt, evaluation day (mean ± 1SD) [2, 10]: 358 ± 125 mg
- δT/δC [2, 10]: 46.6%
- Tumor wt, evaluation day (mean ± 1SD) [2, 11]: 375 ± 155 mg
- δT/δC [2, 11]: 50.7%
- Tumor wt, evaluation day (mean ± 1SD) [2, 12]: 364 ± 254 mg
- δT/δC [2, 12]: 39.9%
- Tumor wt, evaluation day (mean ± 1SD) [2, 13]: 402 ± 187 mg
- δT/δC [2, 13]: 52.1%
- Tumor wt, evaluation day (mean ± 1SD) [2, 14]: 279 ± 121 mg
- δT/δC [2, 14]: 15.8%
- Maximum solubility (as dosage) [3]: 288 mg/kg
- maximum solubility (as dose) [3]: 288 mg per kg
- solubility relative to enantiomer B [3]: exhibits solubility characteristics of enantiomer B
- water solubility [3]: water soluble
- activity against B-16 melanoma (B-16 melanoma): No activity
- Attained tumor wt (Mean ± 1SD) (Murine Glioma 261; ip 22 mg/kg/inj): 80 ± 130 mg
- Attained tumor wt (Mean ± 1SD) (Murine Glioma 261; ip 37 mg/kg/inj): 119 ± 105 mg
- Attained tumor wt (Mean ± 1SD) (Murine Glioma 261; ip 62 mg/kg/inj): 137 ± 124 mg
- Attained tumor wt (Mean ± 1SD) (Murine Glioma 261; ip 104 mg/kg/inj): 5 ± 5 mg
- T/C (%) (Murine Glioma 261; ip 22 mg/kg/inj): 22.9%
- T/C (%) (Murine Glioma 261; ip 37 mg/kg/inj): 34.1%
- T/C (%) (Murine Glioma 261; ip 62 mg/kg/inj): 39.3%
- T/C (%) (Murine Glioma 261; ip 104 mg/kg/inj): 1.4%
- activity against Lewis lung carcinoma (Lewis lung carcinoma): No activity
- L1210/5FU cells surviving (% of day zero inoculum) (L1210/5FU cells; ip 62 mg/kg/day, qd days 1-7): 933%
- L1210/5FU cells surviving (% of day zero inoculum) (L1210/5FU cells; ip 104 mg/kg/day, qd days 1,3,5,7): 525%
- L1210/5FU cells surviving (% of day zero inoculum) (L1210/5FU cells; ip 104 mg/kg/day, qd days 1-7): 3%
- L1210/5FU cells surviving (% of day zero inoculum) (L1210/5FU cells; ip 173 mg/kg/day, qd days 1,3,5,7): 13%
- activity against 5-Fluorouracil resistant cells (L1210/5FU cells; large dosages): highly active against these resistant cells
- activity against human lung carcinoma LX-1 [4]: No activity
- Residual cells (% of control brain) (L1210 cells; 24 hr after single ip dose (mg/kg): Methotrexate 12, Adriamycin 3, 6-Mercaptopurine 160, Cytosine Arabinoside 1200, Cyclophosphamide 140, Compound 19 173, Tiazofurin 1200, BCNU 20): 7.9%
- intracranial activity (L1210 cells; intracranial L1210): significant reduction in the number of neoplastic cells in the brain; also recorded: active intracranially
- cell/half brain day 2, cell number (L1210 cells; ip 173 mg/kg day 1): 261016 cell/half brain
- cell/half brain day 2, log10 (L1210 cells; ip 173 mg/kg day 1): 5.42 log10
- change due to drug, cells (L1210 cells; ip 173 mg/kg day 1, vs control): -92.08%
- change due to drug, log10 (L1210 cells; ip 173 mg/kg day 1, vs control): -1.10 log10
- crossing of blood brain barrier / CNS penetration (words) (L1210 cells): effectively cross the blood brain barrier
- crossing of blood brain barrier / CNS penetration (words) (L1210 cells; [6]): able to penetrate the central nervous system; also recorded: penetrating the central nervous system
- mice which died from drug toxicity ([5]; ip 104 mg/kg/inj, bid days 1,4,7, L1210-inoculated BDF1 mice): 1
- toxicity (T/C column) ([5]; ip 288 mg/kg, qd day 1, L1210-inoculated BDF1 mice): TOX
- mortality ([5]; mouse, in vivo, 104 mg/kg, bid days 1,4,7, L1210-inoculated mice, read-out: toxic deaths per number of animals in test group (converted)): 20%
- activity against Methotrexate resistant cells (L1210/MTX cells; depending on dose level and regimen): activity can be seen against these Methotrexate resistant cells
- L1210/MTX cells surviving (% of day zero inoculum) (L1210/MTX cells; ip 104 mg/kg/day, qd days 1,4,7): 238.4%
- L1210/MTX cells surviving (% of day zero inoculum) (L1210/MTX cells; ip 173 mg/kg/day, qd day 1): 1.6%
- L1210/MTX cells surviving (% of day zero inoculum) (L1210/MTX cells; ip 173 mg/kg/day, qd days 1,4,7): 33.8%
